Where two headings read alike, the source gives them in different places.
Tests used:
[1] = for logp [a]: pH 2.3; for logp [b]: pH 2.7; for logp [c]: pH 7.8
physchem = conditions: pH 2.3
Gibberella zeae = conditions: in vivo
[2] = test system: Production of Fumonisin FB1 by Fusarium Proliferatum; assay: Production of fumonisin FB1 by Fusarium proliferatum; format: cell-based; conditions: FB1 concentration by HPLC-MS/MS after 6 days at 20° C.
[3] = logP determination by HPLC on reversed-phase columns (EEC directive 79/831 Annex V.A8); conditions: for logp [a] / logp [b]: acidic range; for logp [a]: pH 2.3, 0.1% aqueous phosphoric acid and acetonitrile; for logp [b] / logp [c]: LC-MS; for logp [b]: pH 2.7, 0.1% aqueous formic acid and acetonitrile; for logp [c]: neutral range, pH 7.8, 0.001 molar aqueous ammonium bicarbonate and acetonitrile
Fusarium proliferatum = assay: Growth of Fusarium proliferatum (OD620) in the fumonisin test; format: cell-based; conditions: OD620 at the beginning and after 6 days

Structure (SMILES): CC1CC1Nc1nc(Nc2ccsc2)ncc1Cl (mixture of isomers) [Example 17]
- logp [a] [1]: 1.97[a]

Structure (SMILES): CC(=O)c1ccc(N)s1 [1-(5-Amino-2-thienyl)ethanone]
- chromatographic logP (physchem): 0.42

Structure (SMILES): Cc1ccc(NC(=O)OC(C)(C)C)s1 [2-(N-tert-Butoxycarbonylamino)-5-methylthiophene]
- chromatographic logP (physchem): 2.89

Structure (SMILES): Clc1cnc(Nc2ccsc2)nc1NC1CC1 [Example 1]
- logp [b] [1]: 1.63[b]

Structure (SMILES): FC(F)(F)c1cnc(Nc2ccsc2)nc1NC1CC1 [Example 2]
- logp [b] [1]: 2.69[b]
- efficacy (Gibberella zeae): ≥ 80%

Structure (SMILES): Brc1cnc(Nc2ccsc2)nc1NC1CCC1 [Example 3]
- logp [b] [1]: 2.12[b]

Structure (SMILES): Brc1cnc(Nc2ccsc2)nc1NC1CC1 [Example 4]
- logp [b] [1]: 1.71[b]

Structure (SMILES): COC(=O)c1cc(Nc2ncc(Cl)c(NC3CC3)n2)cs1 [Example 5, 5-Chloro-N^4-cyclopropyl-N^2-2-methoxycarbonylthiophen-4-yl-2,4-diamine]
- pI50 Fum [2]: 5.3
- logp [a] [3]: 1.68[a]
- logP (pH 2.3) [3]: 1.68
- pI50 growth (Fusarium proliferatum): 4.4

Structure (SMILES): O=C(c1cc(Nc2ncc(Cl)c(NC3CC3)n2)cs1)N1CCCC1 [Example 6, 5-Chloro-N^4-cyclopropyl-N^2-2-pyrrolidin-1-ylcarbonylthiophen-4-yl-2,4-diamine]
- pI50 Fum [2]: 5.9
- logp [a] [3]: 1.42[a]
- logP (pH 2.3) [3]: 1.40
- pI50 growth (Fusarium proliferatum): 5.6

Structure (SMILES): O=C(c1cc(Nc2ncc(Cl)c(NC3CC3)n2)cs1)N1CCCCC1 [Example 7]
- logp [a] [1]: 1.68[a]

Structure (SMILES): CC(C)N(C)C(=O)c1cc(Nc2ncc(Cl)c(NC3CC3)n2)cs1 [Example 8]
- logp [a] [1]: 1.6[a]

Structure (SMILES): CCN(CC)C(=O)c1cc(Nc2ncc(Cl)c(NC3CC3)n2)cs1 [Example 9]
- pI50 Fum [2]: 6.0
- logp [a] [1]: 1.62[a]
- pI50 growth (Fusarium proliferatum): 5.5

Structure (SMILES): CC(=O)c1ccc(Nc2ncc(Cl)c(NC3CC3)n2)s1 [Example 10, N^4-Cyclopropyl-N^2-2-acetylthiophen-5-yl-5-(chloro)pyrimidine-2,4-diamine]
- chromatographic logP (physchem): 1.87

Structure (SMILES): N#Cc1csc(Nc2ncc(Cl)c(NC3CC3)n2)c1 [Example 12]
- logp [a] [1]: 2.55[a]

Structure (SMILES): CC(=O)c1cc(Nc2ncc(Cl)c(NC3CC3)n2)cs1 [Example 13]
- logp [a] [1]: 1.44[a]

Structure (SMILES): N#Cc1cc(Nc2ncc(Cl)c(NC3CC3)n2)cs1 [Example 14]
- logp [a] [1]: 2.23[a]

Structure (SMILES): Clc1cnc(Nc2ccsc2)nc1NC1CCC1 [Example 18]
- logp [b] [1]: 1.96[b]
- logp [c] [1]: 3.46[c];

Structure (SMILES): O=C(c1cc(Nc2ncc(Cl)c(NC3CC3)n2)cs1)N1CCOCC1 [Example 19]
- logp [b] [1]: 1.45[b]
- logp [c] [1]: 2.09[c];

Structure (SMILES): CC(C)(C)NC(=O)c1cc(Nc2ncc(Cl)c(NC3CC3)n2)cs1 [Example 20]
- logp [b] [1]: 2.11[b]

Structure (SMILES): C=CCNC(=O)c1cc(Nc2ncc(Cl)c(NC3CC3)n2)cs1 [Example 21]
- logp [c] [1]: 2.28[c]

Structure (SMILES): C=CCN(C)C(=O)c1cc(Nc2ncc(Cl)c(NC3CC3)n2)cs1 [Example 22]
- logp [b] [1]: 1.89[b]
- logp [c] [1]: 2.65[c];

Structure (SMILES): COCCNC(=O)c1cc(Nc2ncc(Cl)c(NC3CC3)n2)cs1 [Example 23]
- logp [b] [1]: 1.38[b]
- logp [c] [1]: 2.01[c];

Structure (SMILES): COCC(C)NC(=O)c1cc(Nc2ncc(Cl)c(NC3CC3)n2)cs1 (stereo not shown) [Example 24]
- logp [b] [1]: 1.58[b]
- logp [c] [1]: 2.22 [c];

Structure (SMILES): O=C(NO)c1cc(Nc2ncc(Cl)c(NC3CC3)n2)cs1 [Example 25]
- logp [b] [1]: 2.1[b]
- logp [c] [1]: 2.96[c];

Structure (SMILES): Cc1ccc(Nc2ncc(Cl)c(NC3CC3)n2)s1 [Example 26, 5-Chloro-N^4-cyclopropyl-N^2-2-methylthiophen-5-yl-2,4-diamine]
- logp [b] [3]: 2.09[b]
- logp [c] [3]: 3.20[c];
- logP (pH 2.3) [3]: 2.09

Structure (SMILES): CC(C)Nc1nc(Nc2ccsc2)ncc1Cl [Example 27]
- logp [b] [1]: 1.66[b]
- logp [c] [1]: 3.28[c];

Structure (SMILES): CC(C)Nc1nc(Nc2ccsc2)ncc1Br [Example 28]
- logp [b] [1]: 1.85[b]
- logp [c] [1]: 3.43[c];

Structure (SMILES): FC(F)(F)CNc1nc(Nc2ccsc2)ncc1Br [Example 29]
- logp [c] [1]: 3.50[c]

Structure (SMILES): FC(F)CNc1nc(Nc2ccsc2)ncc1Br [Example 30]
- logp [b] [1]: 1.99[b]
- logp [c] [1]: 2.83[c];

Structure (SMILES): FC(F)CNc1nc(Nc2ccsc2)ncc1Cl [Example 31]
- logp [b] [1]: 1.88[b]
- logp [c] [1]: 2.72[c];

Structure (SMILES): Clc1cnc(Nc2ccsc2)nc1NCC1CC1 [Example 32]
- logp [b] [1]: 2.33[b]
- logp [c] [1]: 3.31[c];

Structure (SMILES): CS(=O)(=O)c1ccc(Nc2ncc(Cl)c(NC3CC3)n2)s1 [Example 33]
- logp [b] [1]: 1.97[b]
- logp [c] [1]: 2.02[c];

Structure (SMILES): CSc1ccc(Nc2ncc(Cl)c(NC3CC3)n2)s1 [Example 34]
- logp [b] [1]: 2.84[b]
- logp [c] [1]: 3.36[c];

Structure (SMILES): CSc1ccc(Nc2ncc(Br)c(NC3CC3)n2)s1 [Example 35]
- logp [b] [1]: 3.02[b]
- logp [c] [1]: 3.53[c];

Structure (SMILES): Cc1ccc(Nc2ncc(C(F)(F)F)c(NC3CC3)n2)s1 [Example 36]
- logp [b] [1]: 3.22[b]
- logp [c] [1]: 3.56[c];

Structure (SMILES): O=C(O)c1cc(Nc2ncc(Cl)c(NC3CC3)n2)cs1 [Example 37, 5-Chloro-N^4-cyclopropyl-N^2-2-hydroxycarbonylthiophen-4-yl-2,4-diamine]
- logp [b] [3]: 1.30[b]
- logp [c] [3]: 0.74[c];
- logP (pH 2.3) [3]: 1.30

Structure (SMILES): CN(CC1CC1)C(=O)c1cc(Nc2ncc(Cl)c(NC3CC3)n2)cs1 [Example 38]
- logp [b] [1]: 2.08[b]
- logp [c] [1]: 2.86[c];

Structure (SMILES): S=C(c1cc(Nc2ncc(Cl)c(NC3CC3)n2)cs1)N1CCCC1 [Example 39]
- logp [b] [1]: 2.31[b]
- logp [c] [1]: 3.23[c];

Structure (SMILES): CCN(CC)C(=S)c1cc(Nc2ncc(Cl)c(NC3CC3)n2)cs1 [Example 40]
- logp [b] [1]: 2.55[b]
- logp [c] [1]: 3.51[c];

Structure (SMILES): Clc1cc(Nc2ncc(Cl)c(NC3CC3)n2)cs1 [Example 41]
- logp [b] [1]: 2.63[b]

Structure (SMILES): Clc1ccc(Nc2ncc(Cl)c(NC3CC3)n2)s1 [Example 43]
- logp [c] [1]: 3.54[c];

Structure (SMILES): Cc1ccc(Nc2ncc(Br)c(NC3CC3)n2)s1 [Example 44]
- logp [b] [1]: 2.27[b]
- logp [c] [1]: 3.35[c];

Structure (SMILES): Clc1cnc(Nc2ccsc2)nc1Cl [Example X-1, 4,5-Dichloro-N-(3-thienyl)pyrimidin-2-amine]
- chromatographic logP (physchem): 3.55

Structure (SMILES): O=c1[nH]c(Nc2ccsc2)ncc1Cl [IX-1, 2-(Thiophen-3-ylamino)-5-chloropyrimidin-4(3H)-one]
- chromatographic logP (physchem): 1.38

From US20110237612A1, “Thienylamino pyrimidines for use as Fungicides” (BayerCropScience AG, priority 2008, published 2011)
